We go through 2 compounds from article PMC12615753, “Glutathione as a taste modulator: molecular mechanisms of interaction with umami and sweet taste receptors” (Food Chemistry: Molecular Sciences, 2025).

In this test the target is T1, hTAS1R1 H308A/rTAS1R3 (Homo sapiens, UniProt Q7RTX1, H308A).
T1 construct: UniProtKB number Q7RTX1–1); expressed in transfected cells; host or cells: HEK293T/17 (ATCC CRL-11268)
T1 sequence (Q7RTX1 21-841 H308A): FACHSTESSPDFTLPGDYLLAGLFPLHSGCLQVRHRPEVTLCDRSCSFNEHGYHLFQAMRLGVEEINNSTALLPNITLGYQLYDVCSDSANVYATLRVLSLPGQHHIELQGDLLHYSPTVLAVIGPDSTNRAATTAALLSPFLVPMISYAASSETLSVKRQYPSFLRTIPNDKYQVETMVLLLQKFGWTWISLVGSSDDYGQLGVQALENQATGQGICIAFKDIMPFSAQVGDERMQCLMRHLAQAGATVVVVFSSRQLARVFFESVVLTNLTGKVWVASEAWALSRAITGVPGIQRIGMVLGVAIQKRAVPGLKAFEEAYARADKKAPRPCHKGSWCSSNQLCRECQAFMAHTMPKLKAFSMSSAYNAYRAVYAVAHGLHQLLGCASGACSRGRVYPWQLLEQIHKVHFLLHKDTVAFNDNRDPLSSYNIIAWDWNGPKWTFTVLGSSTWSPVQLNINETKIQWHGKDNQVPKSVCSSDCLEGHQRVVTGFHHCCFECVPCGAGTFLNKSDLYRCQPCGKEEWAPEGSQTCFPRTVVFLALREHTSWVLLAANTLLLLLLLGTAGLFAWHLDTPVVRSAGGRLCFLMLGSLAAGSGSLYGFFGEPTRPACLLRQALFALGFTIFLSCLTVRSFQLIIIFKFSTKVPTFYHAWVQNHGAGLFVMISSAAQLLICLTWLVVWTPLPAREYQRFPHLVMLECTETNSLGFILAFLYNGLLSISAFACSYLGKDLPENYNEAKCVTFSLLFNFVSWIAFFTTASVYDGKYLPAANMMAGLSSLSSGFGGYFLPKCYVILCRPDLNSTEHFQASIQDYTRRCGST
T1 sequence (Q923K1 21-858 partner): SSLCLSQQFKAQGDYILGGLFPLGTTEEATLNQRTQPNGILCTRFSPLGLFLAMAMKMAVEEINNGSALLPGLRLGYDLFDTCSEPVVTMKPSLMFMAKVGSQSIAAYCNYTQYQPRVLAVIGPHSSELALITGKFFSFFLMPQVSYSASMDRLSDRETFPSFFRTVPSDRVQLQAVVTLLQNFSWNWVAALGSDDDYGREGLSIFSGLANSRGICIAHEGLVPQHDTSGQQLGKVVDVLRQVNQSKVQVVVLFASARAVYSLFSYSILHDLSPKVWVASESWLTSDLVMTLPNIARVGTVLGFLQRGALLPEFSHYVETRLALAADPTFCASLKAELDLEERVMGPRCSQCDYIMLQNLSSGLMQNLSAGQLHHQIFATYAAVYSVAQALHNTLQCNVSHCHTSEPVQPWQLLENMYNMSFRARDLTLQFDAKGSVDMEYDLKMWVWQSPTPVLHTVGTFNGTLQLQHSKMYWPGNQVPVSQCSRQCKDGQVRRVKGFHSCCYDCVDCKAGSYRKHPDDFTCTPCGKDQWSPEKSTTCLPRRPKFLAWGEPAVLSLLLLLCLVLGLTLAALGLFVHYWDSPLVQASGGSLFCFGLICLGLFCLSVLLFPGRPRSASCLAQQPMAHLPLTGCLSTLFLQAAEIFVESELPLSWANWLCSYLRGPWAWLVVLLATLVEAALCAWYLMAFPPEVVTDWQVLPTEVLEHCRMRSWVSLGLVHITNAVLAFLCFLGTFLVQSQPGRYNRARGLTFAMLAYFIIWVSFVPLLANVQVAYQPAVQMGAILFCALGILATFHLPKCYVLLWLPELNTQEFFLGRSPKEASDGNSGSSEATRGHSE
In words: Calcium assay, hTAS1R1 mutant co-expressed with rTAS1R3. In kind it is cell-based, rat.

Take `N[C@@H](CCC(=O)N[C@@H](CS)C(=O)NCC(=O)O)C(=O)O` [GSH, γ-L-glutamyl-L-cysteinyl-glycine]: the EC50 (in general, the concentration giving half of the maximal effect) turned out to be 3.25 ± 0.225 mM. Further, the “effect of the added compound (1 mM) on the response to L-Glu” value (H308A) is on record as “synergy was observed”. In addition, where the note is “H308A, GSH”, the “Max ∆F/F0” value was 0.42 ± 0.01 and the “R1 = mutant EC50/WT EC50” value worked out at 1.3.
As to `CCCC(CCC)NC(=O)c1ccc2c(c1)OCO2` [S807, N-(heptan-4-yl)benzo[d][1,3]dioxole-5-carboxamide, reference compound], the “response to the agonist alone, vs WT” value (H308A) is “strongly affected”.
